From patent US20080064727A1, “Crystalline forms of tiagabine hydrochloride” (Cephalon, Inc., priority 2006, published 2008)
“Also recorded” adds a separate entry of the source. Each block holds one compound with its values, some of them ahead of it.

How the values were obtained:
Type in all cases: physicochemical
[1] = Solid-form stability on drying under vacuum, resulting form by XRPD analysis
Procedure: (§1) X-ray powder diffraction (XRPD) analyses were performed using the following instruments & methods:
(§2) A. Shimadzu XRD-6000 X-ray powder diffractometer using Cu Kα radiation. The instrument was equipped with a long fine focus X-ray tube. The tube voltage and amperage were set to 40 kV and 40 mA, respectively. The divergence and scattering slits were set at 1° and the receiving slit was set at 0.15 mm. Diffracted radiation was detected by a NaI scintillation detector. A θ-2θ continuous scan at 3°/min (0.4 sec/0.02° step) from 2.5 to 40° 2θ was used. A silicon standard was analyzed to check the instrument alignment. Data were collected and analyzed using XRD-6000 v. 4.1. Samples were prepared for analysis by placing them in a sample holder.
(§3) B. Inel XRG-3000 diffractometer, equipped with a CPS (Curved Position Sensitive) detector with a 2 Orange of 120°. Real time data were collected using Cu—Kα radiation starting at approximately 4° 2θ at a resolution of 0.03° 2θ. The tube voltage and amperage were set to 40 kV and 30 mA, respectively. The monochromator slit was set at 5 mm by 80 μm or 160 μm. […] Samples were prepared for analysis by packing them into thin-walled glass capillaries. Each capillary was mounted onto a goniometer head that is motorized to permit spinning of the capillary during data acquisition. The acquisition time was between 5 to 10 min. Instrument calibration was performed using a silicon reference standard.
(§4) D. Bruker D-8 Discover diffractometer and Bruker's General Area Diffraction Detection System (GADDS, v. 4.1.20). An incident beam of Cu—Kα radiation was produced using a fine-focus tube (40 kV, 40 mA), a Gobel mirror, and a 0.5 mm double-pinhole collimator. The samples were positioned for analysis by securing the well plate to a translation stage and moving each sample to intersect the incident beam. Alternatively, the sample was packed between 3-micron thick films to form a portable disc-shaped specimen, and the specimen was loaded in a holder secured to a translation stage. The samples were analyzed using a transmission geometry. The incident beam was scanned and rastered over the sample during the analysis to optimize orientation statistics. A beam-stop was used to minimize air scatter from the incident beam at low angles. Diffraction patterns were collected using a Hi-Star area detector located 15 cm from the sample and processed using GADDS. The intensity in the GADDS image of the diffraction pattern was integrated using a step size of 0.04° 2θ. The integrated patterns display diffraction intensity as a function of 2θ. Prior to the analysis a silicon standard was analyzed to verify the Si 111 peak position.
(§5) E. Peak Picking Methods. Any XRPD files generated from Inel or Bruker XRPD instruments were converted to Shimadzu .raw file using File Monkey version 3.0.4. The Shimadzu .raw file was processed by the Shimadzu XRD-6000 version 4.1 software to automatically find peak positions. The “peak position” means the maximum intensity of a peaked intensity profile. The following processes were used with the Shimadzu XRD-6000 “Basic Process” version 2.6 algorithm: • Smoothing was done on all patterns. • The background was subtracted to find the net, relative intensity of the peaks. • A peak from Cu K alpha2 (1.5444 Å) wavelength was subtracted from the peak generated by Cu K alpha1 (1.5406 Å) peak at 50% intensity for all patterns. Differential Scanning Calorimetry

[2] = Solid-form stability on storage, resulting form by XRPD analysis; settings: for Form indicated by XRPD analysis after storage / Form converted to during storage: hydrochloride; for Form converted to during storage: during storage (summary statement, conditions not given)
Procedure: as §1, §2, §3, §4, §5

[3] = Solid-form stability on heating, resulting form by XRPD analysis
Procedure: as §1, §2, §3
C. Shimadzu XRD-6000 X-ray powder diffractometer equipped with an Anton Paar HTK 1200 high temperature stage (Variable-temperature XRPD (VT-XRPD)). The sample was packed in a ceramic holder and analyzed form 2.5 to 40° 2θ at 3°/min (0.4 sec/0.02° step). The heating rate was 10° C./min. A silicon standard was analyzed to check the instrument alignment. Temperature calibration was performed using vanillin and sulfapyridine USP melting point standards. Data were collected and analyzed using XPD-6000 v.4.1. The system was kept under a purge of nitrogen during the analysis.
as §4
E. Peak Picking Methods. Any XRPD files generated from Inel or Bruker XRPD instruments were converted to Shimadzu .raw file using File Monkey version 3.0.4. The Shimadzu .raw file was processed by the Shimadzu XRD-6000 version 4.1 software to automatically find peak positions. The “peak position” means the maximum intensity of a peaked intensity profile. The following processes were used with the Shimadzu XRD-6000 “Basic Process” version 2.6 algorithm: • Smoothing was done on all patterns. • The background was subtracted to find the net, relative intensity of the peaks. • A peak from Cu K alpha2 (1.5444 Å) wavelength was subtracted from the peak generated by Cu K alpha1 (1.5406 Å) peak at 50% intensity for all patterns. […]

[4] = dried under vacuum at room temperature for less than one day, hydrochloride
[5] = stored two months, ambient temperature and humidity
[6] = stored five (5) days, about 40° C., about 89% relative humidity
[7] = stored five (5) days, about 60° C., about 75% relative humidity
[8] = stored five (5) days, 2-8° C., about 96% relative humidity
[9] = under vacuum at room temperature for about four (4) days, hydrochloride
[10] = dried about 14 hours under vacuum at about 65° C., hydrochloride

Form indicated by XRPD analysis after drying [1, 4]: Form AA
Structure (SMILES): Cc1ccsc1C(=CCCN1CCC[C@@H](C(=O)O)C1)c1sccc1C.Cl [Form AA, tiagabine hydrochloride]

Time stable when stored ([2]; ambient temperature and humidity): 2 months | Form indicated by XRPD analysis after storage [2, 5]: tiagabine HCl Form C
Structure (SMILES): Cc1ccsc1C(=CCCN1CCC[C@@H](C(=O)O)C1)c1sccc1C.Cl [Form C, tiagabine hydrochloride]

Form indicated by XRPD analysis after storage [2, 7]: tiagabine HCl Form B and a trace of Q
Structure (SMILES): Cc1ccsc1C(=CCCN1CCC[C@@H](C(=O)O)C1)c1sccc1C.Cl [Form D containing a minor amount of Form B] [tiagabine hydrochloride]
Form indicated by XRPD analysis after storage [2, 6]: a mixture of tiagabine HCl Form B and a trace of Q

Form indicated by XRPD analysis after storage [2, 8]: a mixture of tiagabine HCl Forms B and Q | Form indicated by XRPD analysis after storage [2, 5]: a mixture of tiagabine HCl Forms Q and B
Structure (SMILES): Cc1ccsc1C(=CCCN1CCC[C@@H](C(=O)O)C1)c1sccc1C.Cl [Form D, tiagabine hydrochloride]
Form converted to during storage [2]: tiagabine hydrochloride Form B, sometimes mixed with tiagabine hydrochloride Form Q | Form indicated by XRPD analysis after drying [1, 4]: a mixture of Form D containing a minor amount of Form A

Form indicated by XRPD analysis after drying [1, 9]: Form Q
Structure (SMILES): Cc1ccsc1C(=CCCN1CCC[C@@H](C(=O)O)C1)c1sccc1C.Cl [Form H, tiagabine hydrochloride]
Form indicated by XRPD analysis after heating ([3]; heated at 90-95° C. for about 10 minutes, hydrochloride): Form Q containing a minor amount of Form B

Structure (SMILES): Cc1ccsc1C(=CCCN1CCC[C@@H](C(=O)O)C1)c1sccc1C.Cl [Form I, tiagabine hydrochloride]
Form converted to during storage [2]: a mixture of tiagabine hydrochloride Forms S and B | Form indicated by XRPD analysis after storage [2, 5]: a mixture of tiagabine HCl Forms S and B; also recorded: a mixture of Form S+Form B

Form indicated by XRPD analysis after storage [2, 5]: a mixture of tiagabine HCl Forms Q and B
Structure (SMILES): Cc1ccsc1C(=CCCN1CCC[C@@H](C(=O)O)C1)c1sccc1C.Cl [Form J, tiagabine hydrochloride]
Form converted to during storage [2]: a mixture of tiagabine hydrochloride Forms Q and B

Form indicated by XRPD analysis after storage [2, 5]: a mixture of tiagabine HCl Forms B and Q
Structure (SMILES): Cc1ccsc1C(=CCCN1CCC[C@@H](C(=O)O)C1)c1sccc1C.Cl [Form M, tiagabine hydrochloride]
Form converted to during storage [2]: a mixture of tiagabine hydrochloride Forms B and Q

Form indicated by XRPD analysis after storage [2, 8]: a mixture of tiagabine HCl Forms P and B | Form indicated by XRPD analysis after drying [1, 10]: a mixture of tiagabine Form P and B
Structure (SMILES): Cc1ccsc1C(=CCCN1CCC[C@@H](C(=O)O)C1)c1sccc1C.Cl [Form P containing Form B, tiagabine hydrochloride]

Form indicated by XRPD analysis after drying ([1]; dried about 15 hours under vacuum at 40-95° C.): a mixture of tiagabine HCl Forms P and B | Form indicated by XRPD analysis after drying [1, 9]: a mixture of tiagabine HCl Forms P and B
Structure (SMILES): Cc1ccsc1C(=CCCN1CCC[C@@H](C(=O)O)C1)c1sccc1C.Cl [Form P containing a minor amount of Form B] [tiagabine hydrochloride]

Form converted to during storage [2]: Form B | Form indicated by XRPD analysis after storage [2, 6]: tiagabine HCl Form B | Form indicated by XRPD analysis after storage [2, 7]: tiagabine HCl Form B
Structure (SMILES): Cc1ccsc1C(=CCCN1CCC[C@@H](C(=O)O)C1)c1sccc1C.Cl [Form P, tiagabine hydrochloride]

Form indicated by XRPD analysis after drying [1, 10]: a mixture of tiagabine HCl Forms S and B
Structure (SMILES): Cc1ccsc1C(=CCCN1CCC[C@@H](C(=O)O)C1)c1sccc1C.Cl [Form S mixed with Form B, tiagabine hydrochloride]

Form indicated by XRPD analysis after drying [1, 9]: tiagabine HCl Form C | Form indicated by XRPD analysis after heating ([3]; heated to about 115-120° C. for approximately 10 minutes): tiagabine HCl Form B
Structure (SMILES): Cc1ccsc1C(=CCCN1CCC[C@@H](C(=O)O)C1)c1sccc1C.Cl [Form T, tiagabine hydrochloride]

Form indicated by XRPD analysis after drying [1, 4]: Form Y
Structure (SMILES): Cc1ccsc1C(=CCCN1CCC[C@@H](C(=O)O)C1)c1sccc1C.Cl [Form Y, tiagabine hydrochloride]
Form indicated by XRPD analysis after heating ([3]; heated at 100-110° C. for about 10 minutes): Form B containing a minor amount of Form Q

Form indicated by XRPD analysis after heating ([3]; heated at 90-95° C. for about 10 minutes, listed as From Z, hydrochloride): a mixture of Forms B and Q
Structure (SMILES): Cc1ccsc1C(=CCCN1CCC[C@@H](C(=O)O)C1)c1sccc1C.Cl [Form Z, tiagabine hydrochloride]
